Test results reported in patent US20220348592A1, “FUSED HETEROCYCLIC DERIVATIVES” (Janssen Sciences Ireland Unlimited Company, priority 2019, published 2022).

Legend:
HBV = experiment: Anti-HBV activity: intracellular HBV DNA by real-time PCR in HepG2.117 cell line; assay type: cell-based, Hepatitis B virus; conditions: Hepatitis B virus, 72 h; HepG2.117 cells, 3 days of treatment, intracellular HBV DNA by real-time PCR, mean value; read-out: HBV-AVE-HepG2.117 EC50 (μM, mean value)
In short: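 HepG2.117 cells, a Tet-off inducible HBV-producing line, induced to replicate HBV and then treated with serially diluted compound. After 3 days, intracellular HBV DNA quantified by real-time PCR with HBV-specific primers and probe.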

[1] = Cytotoxicity in HepG2.117 cells, ATPlite Luminescence Assay; assay type: cell-based, human; conditions: human, incubated for 3 days, mean value, read-out: TOX-HepG2.117 CC50 (μM, mean value)
Method: Cytotoxicity of the compounds was tested using HepG2 or HepG2.117 cells, incubated for 3 days in the presence of compounds. The viability of the cells was assessed using the PERKIN ELMER ATPlite Luminescence Assay System.”

| SMILES | EC50 (HBV) [µM] | CC50 at 3 days [1] [µM] |
| --- | --- | --- |
| CC(C)Oc1ccc(CN2CCn3nc4c(c3C2=O)CN(C(=O)c2ccc(Cl)c(Cl)c2)[C@H](C)C4)cc1 [Example C164] | 0.039 | 4.29 |
| C[C@@H]1Cc2nn3c(c2CN1C(=O)c1ccc(Cl)c(Cl)c1)C(=O)N(Cc1nnn(C)c1C(F)(F)F)CC3 [Example C165] | 0.676 | > 50 |
| COc1cccc(F)c1CN1CCn2nc3c(c2C1=O)CN(C(=O)c1ccc(Cl)c(Cl)c1)[C@H](C)C3 [Example C166] | 0.034 | 29.1 |
| C[C@@H]1Cc2nn3c(c2CN1C(=O)c1ccc(Cl)c(Cl)c1)C(=O)N(Cc1ccncc1C(F)F)CC3 [Example C167] | 0.277 | > 50 |
| COc1ccc(CN2CCn3nc4c(c3C2=O)CN(C(=O)c2ccc(Cl)c(Cl)c2)[C@H](C)C4)c(F)c1 [Example C168] | 0.046 | 6.11 |
| C[C@@H]1Cc2nn3c(c2CN1C(=O)c1ccc(Cl)c(Cl)c1)C(=O)N(Cc1ncoc1C(F)(F)F)CC3 [Example C169] | 0.831 | > 50 |
| C[C@@H]1Cc2nn3c(c2CN1C(=O)c1ccc(Cl)c(Cl)c1)C(=O)N(Cc1ccc(C#N)cc1C(F)(F)F)CC3 [Example C170] | 0.432 | > 50 |
| C[C@@H]1Cc2nn3c(c2CN1C(=O)c1ccc(Cl)c(Cl)c1)C(=O)N(Cc1ccc(C(F)(F)F)nc1)CC3 [Example C171] | 0.082 | 15.3 |
| C[C@@H]1Cc2nn3c(c2CN1C(=O)c1ccc(Cl)c(Cl)c1)C(=O)N(Cc1coc(C(F)(F)F)n1)CC3 [Example C172] | 0.19 | > 50 |
| Cc1cn(C)c(CN2CCn3nc4c(c3C2=O)CN(C(=O)c2ccc(Cl)c(Cl)c2)[C@H](C)C4)n1 [Example C173] | 0.41 | > 50 |
| C[C@@H]1Cc2nn3c(c2CN1C(=O)c1ccc(Cl)c(Cl)c1)C(=O)N(Cc1ccccc1OC(F)(F)F)CC3 [Example C174] | 0.18 | 15.3 |
| C[C@@H]1Cc2nn3c(c2CN1C(=O)c1ccc(Cl)c(Cl)c1)C(=O)N(Cc1ccc(C#N)cc1F)CC3 [Example C175] | 0.038 | 35.5 |
| C[C@@H]1Cc2nn3c(c2CN1C(=O)c1ccc(Cl)c(Cl)c1)C(=O)N(Cc1cn2ccc(C(F)(F)F)cc2n1)CC3 [Example C176] | 0.274 | 15 |
| Cc1cc(F)ncc1CN1CCn2nc3c(c2C1=O)CN(C(=O)c1ccc(Cl)c(Cl)c1)[C@H](C)C3 [Example C177] | 0.136 | > 50 |
| C[C@@H]1Cc2nn3c(c2CN1C(=O)c1ccc(Cl)c(Cl)c1)C(=O)N(Cc1cc(C#N)c(F)cc1F)CC3 [Example C178] | 0.207 | > 50 |
| CC(C)c1nnc(CN2CCn3nc4c(c3C2=O)CN(C(=O)c2ccc(Cl)c(Cl)c2)[C@H](C)C4)o1 [Example C179] | 0.219 | > 50 |
| C[C@@H]1Cc2nn3c(c2CN1C(=O)c1ccc(Cl)c(Cl)c1)C(=O)N(Cc1cc(C#N)ccc1F)CC3 [Example C180] | 0.123 | > 50 |
| C[C@@H]1Cc2nn3c(c2CN1C(=O)c1ccc(Cl)c(Cl)c1)C(=O)N(Cc1cc(F)ccc1C(F)(F)F)CC3 [Example C181] | 0.152 | > 50 |
| C[C@@H]1Cc2nn3c(c2CN1C(=O)c1ccc(Cl)c(Cl)c1)C(=O)N(Cc1cc(C(F)F)on1)CC3 [Example C182] | 0.075 | > 50 |
| CC(C)c1noc(C(C)N2CCn3nc4c(c3C2=O)CN(C(=O)c2ccc(Cl)c(Cl)c2)[C@H](C)C4)n1 (stereo partly drawn) [Example C183] | 0.108 | > 50 |
| CC(c1nnnn1C1CC1)N1CCn2nc3c(c2C1=O)CN(C(=O)c1ccc(Cl)c(Cl)c1)[C@H](C)C3 (stereo partly drawn) [Example C184] | > 2.5 | > 50 |
| CC(c1cccnc1)N1CCn2nc3c(c2C1=O)CN(C(=O)c1ccc(Cl)c(Cl)c1)[C@H](C)C3 (stereo partly drawn) [Example C185] | 0.114 | > 50 |
| CC(c1ccc(F)c(F)c1)N1CCn2nc3c(c2C1=O)CN(C(=O)c1ccc(Cl)c(Cl)c1)[C@H](C)C3 (stereo partly drawn) [Example C186] | 0.049 | 21.6 |
| CC(C)Cc1nnc(C(C)N2CCn3nc4c(c3C2=O)CN(C(=O)c2ccc(Cl)c(Cl)c2)[C@H](C)C4)o1 (stereo partly drawn) [Example C187] | 0.155 | > 50 |
| CC(c1cccc(F)c1)N1CCn2nc3c(c2C1=O)CN(C(=O)c1ccc(Cl)c(Cl)c1)[C@H](C)C3 (stereo partly drawn) [Example C188] | 0.04 | 49.6 |
| CC(c1cc(F)ccc1F)N1CCn2nc3c(c2C1=O)CN(C(=O)c1ccc(Cl)c(Cl)c1)[C@H](C)C3 (stereo partly drawn) [Example C189] | 0.043 | 41.8 |
| CC(c1nc(C2CC2)no1)N1CCn2nc3c(c2C1=O)CN(C(=O)c1ccc(Cl)c(Cl)c1)[C@H](C)C3 (stereo partly drawn) [Example C190] | 0.115 | 33.1 |

| SMILES | EC50 (HBV) [µM] | CC50 at 3 days [1] [µM] |
| --- | --- | --- |
| CC(c1cccc2cccnc12)N1CCn2nc3c(c2C1=O)CN(C(=O)c1ccc(Cl)c(Cl)c1)[C@H](C)C3 (stereo partly drawn) [Example C191] | 0.097 | 33 |
| CC(c1ccc(F)cc1F)N1CCn2nc3c(c2C1=O)CN(C(=O)c1ccc(Cl)c(Cl)c1)[C@H](C)C3 (stereo partly drawn) [Example C192] | 0.076 | 39.7 |
| Cc1nccnc1C(C)N1CCn2nc3c(c2C1=O)CN(C(=O)c1ccc(Cl)c(Cl)c1)[C@H](C)C3 (stereo partly drawn) [Example C193] | 0.197 | > 50 |
| CC(c1cccc(OC(F)(F)F)c1)N1CCn2nc3c(c2C1=O)CN(C(=O)c1ccc(Cl)c(Cl)c1)[C@H](C)C3 (stereo partly drawn) [Example C194] | 0.075 | 26.4 |
| C[C@@H]1Cc2nn3c(c2CN1C(=O)c1ccc(Cl)c(Cl)c1)C(=O)N(Cc1ccc(C#N)cn1)CC3 [Example C195] | 0.566 | > 50 |
| C[C@@H]1Cc2nn3c(c2CN1C(=O)c1ccc(Cl)c(Cl)c1)C(=O)N(Cc1cc(F)cc(F)c1)CC3 [Example C196] | 0.048 | 38 |
| C[C@@H]1Cc2nn3c(c2CN1C(=O)c1ccc(Cl)c(Cl)c1)C(=O)N(Cc1c(F)cncc1F)CC3 [Example C197] | 0.24 | > 50 |
| COc1ncc(CN2CCn3nc4c(c3C2=O)CN(C(=O)c2ccc(Cl)c(Cl)c2)[C@H](C)C4)cn1 [Example C198] | 0.053 | > 50 |
| C[C@@H]1Cc2nn3c(c2CN1C(=O)c1ccc(Cl)c(Cl)c1)C(=O)N(Cc1nc(Cl)ccc1F)CC3 [Example C199] | 0.33 | > 50 |
| C[C@@H]1Cc2nn3c(c2CN1C(=O)c1ccc(Cl)c(Cl)c1)C(=O)N(Cc1nnn(C)n1)CC3 [Example C200] | 0.25 | > 50 |
| C[C@@H]1Cc2nn3c(c2CN1C(=O)c1ccc(Cl)c(Cl)c1)C(=O)N(Cc1nnc(C2CC2)o1)CC3 [Example C201] | 0.229 | > 50 |
| C[C@@H]1Cc2nn3c(c2CN1C(=O)c1ccc(Cl)c(Cl)c1)C(=O)N(Cc1cn(C)cn1)CC3 [Example C202] | 0.071 | > 50 |
| C[C@@H]1Cc2nn3c(c2CN1C(=O)c1ccc(Cl)c(Cl)c1)C(=O)N(Cc1ccc(C#N)cc1OC(F)F)CC3 [Example C203] | 0.09 | > 50 |
| Cc1cc(CN2CCn3nc4c(c3C2=O)CN(C(=O)c2ccc(Cl)c(Cl)c2)[C@H](C)C4)ccc1C#N [Example C204] | 0.028 | 19.2 |
| Cc1cc(C#N)ccc1CN1CCn2nc3c(c2C1=O)CN(C(=O)c1ccc(Cl)c(Cl)c1)[C@H](C)C3 [Example C207] | 0.053 | 25.6 |
| C[C@@H]1Cc2nn3c(c2CN1C(=O)c1ccc(Cl)c(Cl)c1)C(=O)N(Cc1ccc(F)cn1)CC3 [Example C208] | 0.13 | > 50 |
| Cc1ncc(CN2CCn3nc4c(c3C2=O)CN(C(=O)c2ccc(Cl)c(Cl)c2)[C@H](C)C4)o1 [Example C209] | > 2.5 | > 50 |
| C[C@@H]1Cc2nn3c(c2CN1C(=O)c1ccc(Cl)c(Cl)c1)C(=O)N(Cc1ccnc(F)c1)CC3 [Example C210] | 0.062 | > 50 |
| C[C@@H]1Cc2nn3c(c2CN1C(=O)c1ccc(Cl)c(Cl)c1)C(=O)N(Cc1ccnc(C#N)c1)CC3 [Example C211] | 0.285 | > 50 |
| C[C@@H]1Cc2nn3c(c2CN1C(=O)c1ccc(Cl)c(Cl)c1)C(=O)N(Cc1cc(F)ccc1OC(F)F)CC3 [Example C212] | 0.05 | > 50 |
| C[C@@H]1Cc2nn3c(c2CN1C(=O)c1ccc(Cl)c(Cl)c1)C(=O)N(Cc1cccc(C(F)(F)F)n1)CC3 [Example C213] | 0.382 | 37.5 |
| Cc1ncoc1CN1CCn2nc3c(c2C1=O)CN(C(=O)c1ccc(Cl)c(Cl)c1)[C@H](C)C3 [Example C214] | 0.074 | > 50 |
| COc1ccc(C#N)cc1CN1CCn2nc3c(c2C1=O)CN(C(=O)c1ccc(Cl)c(Cl)c1)[C@H](C)C3 [Example C215] | 0.106 | > 50 |
| C[C@@H]1Cc2nn3c(c2CN1C(=O)c1ccc(Cl)c(Cl)c1)C(=O)N(Cc1ccc(F)c(C#N)c1)CC3 [Example C216] | 0.09 | > 50 |
| CC(c1nc(C(C)(C)C)no1)N1CCn2nc3c(c2C1=O)CN(C(=O)c1ccc(Cl)c(Cl)c1)[C@H](C)C3 (stereo partly drawn) [Example C217] | 0.183 | 39.5 |
| CC(c1nccs1)N1CCn2nc3c(c2C1=O)CN(C(=O)c1ccc(Cl)c(Cl)c1)[C@H](C)C3 (stereo partly drawn) [Example C218] | 0.039 | > 50 |
| Cc1cnc(C(C)N2CCn3nc4c(c3C2=O)CN(C(=O)c2ccc(Cl)c(Cl)c2)[C@H](C)C4)cn1 (stereo partly drawn) [Example C219] | 0.068 | > 50 |
